# According to ChEMBL document CHEMBL3991601, “The target landscape of clinical kinase drugs” (Science, 2017):
# Active and inactive are the calls of the source.
# Columns and labels:
# Adenosine kinase = Adenosine kinase (Homo sapiens, UniProt P55263)
# [1] = target: Serine/threonine-protein kinase B-raf (Homo sapiens, UniProt P15056)
# [2] = target: Serine/threonine-protein kinase MRCK alpha (Homo sapiens, UniProt Q5VT25)
# [3] = target: Serine/threonine-protein kinase MRCK beta (Homo sapiens, UniProt Q9Y5S2)
# Chain of Serine/threonine-protein kinase MRCK beta (Q9Y5S2 whole entry, the tested form may be a part): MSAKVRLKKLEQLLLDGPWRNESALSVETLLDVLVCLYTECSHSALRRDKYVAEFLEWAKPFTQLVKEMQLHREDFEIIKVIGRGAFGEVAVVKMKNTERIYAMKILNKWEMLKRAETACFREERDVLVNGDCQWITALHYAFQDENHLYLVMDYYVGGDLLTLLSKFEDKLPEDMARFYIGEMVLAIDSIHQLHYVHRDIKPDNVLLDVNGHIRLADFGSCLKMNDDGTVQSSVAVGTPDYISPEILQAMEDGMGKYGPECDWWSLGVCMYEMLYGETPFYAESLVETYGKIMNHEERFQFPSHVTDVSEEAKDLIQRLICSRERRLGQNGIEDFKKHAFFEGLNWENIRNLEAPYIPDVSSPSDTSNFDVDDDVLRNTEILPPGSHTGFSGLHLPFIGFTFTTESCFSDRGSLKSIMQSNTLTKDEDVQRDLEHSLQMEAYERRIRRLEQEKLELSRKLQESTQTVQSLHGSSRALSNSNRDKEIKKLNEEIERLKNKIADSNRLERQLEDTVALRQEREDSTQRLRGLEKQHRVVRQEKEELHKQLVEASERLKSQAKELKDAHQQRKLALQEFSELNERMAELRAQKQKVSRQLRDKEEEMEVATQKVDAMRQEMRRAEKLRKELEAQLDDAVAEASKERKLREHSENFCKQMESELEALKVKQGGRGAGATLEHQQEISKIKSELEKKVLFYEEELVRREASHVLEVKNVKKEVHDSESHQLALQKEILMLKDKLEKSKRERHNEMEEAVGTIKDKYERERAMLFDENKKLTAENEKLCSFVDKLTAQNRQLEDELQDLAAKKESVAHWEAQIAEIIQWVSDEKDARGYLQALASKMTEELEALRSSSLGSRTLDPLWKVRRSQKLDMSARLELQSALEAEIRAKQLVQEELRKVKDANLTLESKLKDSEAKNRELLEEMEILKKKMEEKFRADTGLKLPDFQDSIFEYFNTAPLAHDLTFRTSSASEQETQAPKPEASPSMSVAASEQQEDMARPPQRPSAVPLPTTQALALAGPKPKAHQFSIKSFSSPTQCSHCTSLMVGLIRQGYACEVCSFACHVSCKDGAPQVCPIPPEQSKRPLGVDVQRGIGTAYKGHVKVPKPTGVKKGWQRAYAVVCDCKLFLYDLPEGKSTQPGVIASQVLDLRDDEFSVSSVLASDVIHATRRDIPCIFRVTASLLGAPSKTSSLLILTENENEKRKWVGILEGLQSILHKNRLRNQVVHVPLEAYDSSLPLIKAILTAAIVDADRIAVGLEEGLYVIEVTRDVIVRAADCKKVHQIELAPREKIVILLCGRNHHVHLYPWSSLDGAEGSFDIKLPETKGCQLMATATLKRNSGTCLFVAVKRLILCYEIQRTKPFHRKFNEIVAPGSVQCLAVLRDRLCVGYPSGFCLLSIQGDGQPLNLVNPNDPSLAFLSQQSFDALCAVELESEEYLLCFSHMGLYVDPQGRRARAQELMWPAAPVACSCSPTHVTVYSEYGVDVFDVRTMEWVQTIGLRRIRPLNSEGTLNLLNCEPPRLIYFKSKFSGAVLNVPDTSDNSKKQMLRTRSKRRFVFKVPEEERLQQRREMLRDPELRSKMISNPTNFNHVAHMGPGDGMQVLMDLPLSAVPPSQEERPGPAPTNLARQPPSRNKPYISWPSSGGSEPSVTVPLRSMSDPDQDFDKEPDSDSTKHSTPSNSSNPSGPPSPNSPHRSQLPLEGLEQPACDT
# [4] = target: T1, Discoidin domain-containing receptor 2 (Homo sapiens, UniProt Q16832)
# T1 sequence (Q16832 whole entry): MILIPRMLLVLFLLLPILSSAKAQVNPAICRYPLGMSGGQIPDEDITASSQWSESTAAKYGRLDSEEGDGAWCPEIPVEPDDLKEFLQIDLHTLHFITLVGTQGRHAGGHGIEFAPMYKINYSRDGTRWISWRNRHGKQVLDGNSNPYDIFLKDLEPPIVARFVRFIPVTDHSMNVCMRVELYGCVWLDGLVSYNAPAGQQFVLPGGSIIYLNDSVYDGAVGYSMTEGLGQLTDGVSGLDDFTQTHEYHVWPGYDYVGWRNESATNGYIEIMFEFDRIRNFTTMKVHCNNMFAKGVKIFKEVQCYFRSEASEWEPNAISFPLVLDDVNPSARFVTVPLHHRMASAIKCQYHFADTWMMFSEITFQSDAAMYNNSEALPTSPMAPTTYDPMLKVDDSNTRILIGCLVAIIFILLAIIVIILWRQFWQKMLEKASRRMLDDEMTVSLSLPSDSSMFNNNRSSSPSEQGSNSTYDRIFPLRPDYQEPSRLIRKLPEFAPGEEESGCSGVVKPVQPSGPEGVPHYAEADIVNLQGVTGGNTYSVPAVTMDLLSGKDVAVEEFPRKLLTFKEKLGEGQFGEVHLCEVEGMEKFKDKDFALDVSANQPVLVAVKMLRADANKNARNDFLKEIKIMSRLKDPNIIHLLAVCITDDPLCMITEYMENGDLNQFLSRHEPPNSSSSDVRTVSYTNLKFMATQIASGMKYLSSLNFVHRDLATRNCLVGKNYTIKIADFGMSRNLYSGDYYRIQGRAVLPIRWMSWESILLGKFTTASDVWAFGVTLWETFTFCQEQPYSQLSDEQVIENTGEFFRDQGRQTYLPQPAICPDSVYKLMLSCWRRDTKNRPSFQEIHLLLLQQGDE
# [5] = target: Tyrosine-protein kinase Fyn (Homo sapiens, UniProt P06241)
# Chain of Tyrosine-protein kinase Fyn (P06241 whole entry): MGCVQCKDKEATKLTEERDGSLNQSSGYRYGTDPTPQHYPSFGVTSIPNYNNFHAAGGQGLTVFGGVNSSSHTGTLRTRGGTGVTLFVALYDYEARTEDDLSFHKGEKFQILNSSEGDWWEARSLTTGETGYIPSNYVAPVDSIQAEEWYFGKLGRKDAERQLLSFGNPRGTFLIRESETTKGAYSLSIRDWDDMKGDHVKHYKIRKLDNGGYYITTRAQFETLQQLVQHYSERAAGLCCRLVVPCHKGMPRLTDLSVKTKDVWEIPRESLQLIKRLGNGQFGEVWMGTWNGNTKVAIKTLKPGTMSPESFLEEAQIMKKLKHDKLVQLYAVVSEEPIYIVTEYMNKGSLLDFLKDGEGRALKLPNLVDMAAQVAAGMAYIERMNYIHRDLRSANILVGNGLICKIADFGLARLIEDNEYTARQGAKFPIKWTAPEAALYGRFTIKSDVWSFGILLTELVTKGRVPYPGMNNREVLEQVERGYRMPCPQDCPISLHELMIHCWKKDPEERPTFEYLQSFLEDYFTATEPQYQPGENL
# [6] = target: T2, MAP/microtubule affinity-regulating kinase 4 (Homo sapiens, UniProt Q96L34)
# T2 sequence (Q96L34 whole entry): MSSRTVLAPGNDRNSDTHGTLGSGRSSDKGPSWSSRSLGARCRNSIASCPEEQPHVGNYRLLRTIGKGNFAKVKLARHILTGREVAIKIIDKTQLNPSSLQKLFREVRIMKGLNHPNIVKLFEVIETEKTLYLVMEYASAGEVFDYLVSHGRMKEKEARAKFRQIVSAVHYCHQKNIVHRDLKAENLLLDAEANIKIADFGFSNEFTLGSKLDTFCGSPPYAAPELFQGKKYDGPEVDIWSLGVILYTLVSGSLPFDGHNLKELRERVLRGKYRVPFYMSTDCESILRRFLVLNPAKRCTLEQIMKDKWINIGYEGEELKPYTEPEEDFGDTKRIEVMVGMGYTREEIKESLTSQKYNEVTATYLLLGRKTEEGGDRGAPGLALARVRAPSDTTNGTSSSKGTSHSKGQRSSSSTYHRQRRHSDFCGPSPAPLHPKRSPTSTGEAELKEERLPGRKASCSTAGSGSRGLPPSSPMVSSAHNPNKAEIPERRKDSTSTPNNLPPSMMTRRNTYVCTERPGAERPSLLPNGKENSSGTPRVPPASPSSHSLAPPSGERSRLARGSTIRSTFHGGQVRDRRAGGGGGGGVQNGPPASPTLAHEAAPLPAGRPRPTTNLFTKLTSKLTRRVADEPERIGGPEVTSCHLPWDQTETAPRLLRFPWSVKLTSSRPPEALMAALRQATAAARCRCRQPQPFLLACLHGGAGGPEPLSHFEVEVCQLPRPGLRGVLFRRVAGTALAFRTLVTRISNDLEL
# [7] = target: T3, DNA replication licensing factor MCM4 (Homo sapiens, UniProt P33991)
# T3 sequence (P33991 whole entry): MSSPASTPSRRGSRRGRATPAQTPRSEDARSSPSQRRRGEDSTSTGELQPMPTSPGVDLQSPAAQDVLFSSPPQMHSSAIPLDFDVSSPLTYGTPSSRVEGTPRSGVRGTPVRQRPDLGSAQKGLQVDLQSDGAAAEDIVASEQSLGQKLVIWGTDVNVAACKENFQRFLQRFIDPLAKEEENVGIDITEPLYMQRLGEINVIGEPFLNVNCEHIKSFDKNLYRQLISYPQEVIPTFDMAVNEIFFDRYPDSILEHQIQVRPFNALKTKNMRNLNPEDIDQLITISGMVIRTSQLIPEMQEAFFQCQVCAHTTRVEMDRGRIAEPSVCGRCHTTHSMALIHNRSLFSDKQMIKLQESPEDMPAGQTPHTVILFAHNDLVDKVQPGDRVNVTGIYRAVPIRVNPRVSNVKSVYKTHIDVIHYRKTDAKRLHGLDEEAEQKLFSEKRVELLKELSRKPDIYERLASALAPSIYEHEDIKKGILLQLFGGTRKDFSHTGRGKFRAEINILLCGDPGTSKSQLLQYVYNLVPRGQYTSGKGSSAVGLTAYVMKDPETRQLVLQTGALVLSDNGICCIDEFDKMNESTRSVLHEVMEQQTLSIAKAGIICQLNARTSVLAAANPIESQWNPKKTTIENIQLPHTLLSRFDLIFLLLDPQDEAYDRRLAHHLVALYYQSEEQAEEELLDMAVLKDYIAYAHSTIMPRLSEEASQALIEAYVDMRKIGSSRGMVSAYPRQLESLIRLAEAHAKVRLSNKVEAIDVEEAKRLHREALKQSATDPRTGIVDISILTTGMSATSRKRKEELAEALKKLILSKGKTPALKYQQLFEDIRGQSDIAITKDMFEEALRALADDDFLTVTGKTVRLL
# Note: in the data inactive means no Kd found up to 30 µM.
# Chain of Serine/threonine-protein kinase MRCK alpha (Q5VT25 whole entry): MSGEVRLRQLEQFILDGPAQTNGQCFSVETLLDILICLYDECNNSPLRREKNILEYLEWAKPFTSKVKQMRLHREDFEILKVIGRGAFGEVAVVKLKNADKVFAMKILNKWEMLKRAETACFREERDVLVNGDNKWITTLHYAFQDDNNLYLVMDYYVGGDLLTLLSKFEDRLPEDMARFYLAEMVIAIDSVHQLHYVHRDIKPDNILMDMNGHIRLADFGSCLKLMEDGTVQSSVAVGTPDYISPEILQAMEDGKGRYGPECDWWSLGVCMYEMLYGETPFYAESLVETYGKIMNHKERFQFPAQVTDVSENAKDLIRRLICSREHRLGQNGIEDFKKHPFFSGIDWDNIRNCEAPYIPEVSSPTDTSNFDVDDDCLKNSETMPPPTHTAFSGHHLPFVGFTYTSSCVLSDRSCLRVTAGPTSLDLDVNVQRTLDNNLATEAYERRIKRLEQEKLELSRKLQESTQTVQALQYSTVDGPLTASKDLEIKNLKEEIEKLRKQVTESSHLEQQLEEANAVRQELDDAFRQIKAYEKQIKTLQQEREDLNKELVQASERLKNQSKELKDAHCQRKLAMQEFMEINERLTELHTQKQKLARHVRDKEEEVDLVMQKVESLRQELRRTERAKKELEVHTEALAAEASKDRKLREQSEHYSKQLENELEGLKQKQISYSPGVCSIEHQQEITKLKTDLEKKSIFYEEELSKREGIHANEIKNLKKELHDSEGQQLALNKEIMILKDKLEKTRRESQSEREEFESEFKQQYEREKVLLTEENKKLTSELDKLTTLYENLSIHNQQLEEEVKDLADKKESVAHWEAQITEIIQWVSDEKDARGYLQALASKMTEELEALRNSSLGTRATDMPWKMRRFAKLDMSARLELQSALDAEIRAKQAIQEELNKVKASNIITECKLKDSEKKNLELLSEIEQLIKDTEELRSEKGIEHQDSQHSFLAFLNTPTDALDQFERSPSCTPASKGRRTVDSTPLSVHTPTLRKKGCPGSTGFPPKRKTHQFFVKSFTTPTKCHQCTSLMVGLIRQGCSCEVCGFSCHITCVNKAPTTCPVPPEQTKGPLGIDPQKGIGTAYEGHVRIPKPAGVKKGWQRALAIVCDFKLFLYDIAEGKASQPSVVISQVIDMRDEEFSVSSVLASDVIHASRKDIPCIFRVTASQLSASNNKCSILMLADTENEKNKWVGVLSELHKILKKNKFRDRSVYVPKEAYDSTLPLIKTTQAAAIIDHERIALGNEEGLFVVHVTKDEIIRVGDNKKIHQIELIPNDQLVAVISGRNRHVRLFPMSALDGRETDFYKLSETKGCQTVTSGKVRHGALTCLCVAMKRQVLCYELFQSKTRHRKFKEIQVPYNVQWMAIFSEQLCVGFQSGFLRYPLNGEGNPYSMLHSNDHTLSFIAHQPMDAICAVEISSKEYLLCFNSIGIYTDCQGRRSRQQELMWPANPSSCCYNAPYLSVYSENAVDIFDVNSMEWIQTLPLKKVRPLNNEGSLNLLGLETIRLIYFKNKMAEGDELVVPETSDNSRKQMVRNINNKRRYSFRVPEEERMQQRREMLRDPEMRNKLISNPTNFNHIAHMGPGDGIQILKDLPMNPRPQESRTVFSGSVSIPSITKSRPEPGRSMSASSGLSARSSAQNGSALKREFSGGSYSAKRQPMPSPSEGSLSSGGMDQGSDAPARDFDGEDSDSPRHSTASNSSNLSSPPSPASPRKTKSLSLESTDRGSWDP
# Chain of Serine/threonine-protein kinase B-raf (P15056 whole entry): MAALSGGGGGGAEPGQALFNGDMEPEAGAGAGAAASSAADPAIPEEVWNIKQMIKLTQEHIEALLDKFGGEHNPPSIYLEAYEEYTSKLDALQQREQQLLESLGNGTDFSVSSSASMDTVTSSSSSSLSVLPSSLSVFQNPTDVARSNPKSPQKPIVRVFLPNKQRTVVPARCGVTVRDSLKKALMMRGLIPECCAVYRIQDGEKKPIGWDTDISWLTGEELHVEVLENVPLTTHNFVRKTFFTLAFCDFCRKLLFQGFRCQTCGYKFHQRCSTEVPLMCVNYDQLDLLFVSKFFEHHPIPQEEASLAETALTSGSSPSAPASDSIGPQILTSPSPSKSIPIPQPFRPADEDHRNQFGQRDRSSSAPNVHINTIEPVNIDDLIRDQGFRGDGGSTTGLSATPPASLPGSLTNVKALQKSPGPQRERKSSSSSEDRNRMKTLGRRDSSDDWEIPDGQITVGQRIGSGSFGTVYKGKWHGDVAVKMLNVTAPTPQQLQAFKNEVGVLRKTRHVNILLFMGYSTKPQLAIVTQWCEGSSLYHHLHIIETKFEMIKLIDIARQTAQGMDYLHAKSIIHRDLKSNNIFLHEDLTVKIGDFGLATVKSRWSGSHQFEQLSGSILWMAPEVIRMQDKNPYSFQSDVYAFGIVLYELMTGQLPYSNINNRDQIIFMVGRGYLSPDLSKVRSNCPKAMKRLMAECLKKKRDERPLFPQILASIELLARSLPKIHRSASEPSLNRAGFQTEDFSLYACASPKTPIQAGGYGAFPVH
# Chain of Adenosine kinase (P55263 whole entry): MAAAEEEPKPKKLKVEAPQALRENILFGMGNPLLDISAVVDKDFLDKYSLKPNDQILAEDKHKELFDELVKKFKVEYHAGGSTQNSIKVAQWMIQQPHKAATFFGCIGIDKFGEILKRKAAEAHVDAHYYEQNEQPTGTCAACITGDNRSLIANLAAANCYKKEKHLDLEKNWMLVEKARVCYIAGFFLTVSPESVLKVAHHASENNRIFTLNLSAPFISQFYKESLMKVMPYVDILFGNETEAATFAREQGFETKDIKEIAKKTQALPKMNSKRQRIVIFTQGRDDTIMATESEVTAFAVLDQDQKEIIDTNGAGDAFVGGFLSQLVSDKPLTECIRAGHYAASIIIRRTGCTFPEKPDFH
SMILES,Kd (Adenosine kinase),Kd [1],Kd [2],Kd [3],Kd [4],Kd [5],Kd [6],Kd [7]
Cn1cc(-c2ccc3nnc(C(F)(F)c4ccc5ncccc5c4)n3n2)cn1 [JNJ-38877605],> 30 µM (inactive),> 30 µM (inactive),> 30 µM (inactive),> 30 µM (inactive),> 30 µM (inactive),> 30 µM (inactive),> 30 µM (inactive),
CCc1cnn2c(NCc3ccc[n+]([O-])c3)cc(N3CCCC[C@H]3CCO)nc12 [DINACICLIB],> 30 µM (inactive),> 30 µM (inactive),> 30 µM (inactive),> 30 µM (inactive),> 30 µM (inactive),,> 30 µM (inactive),> 30 µM (inactive)
COc1cc2nccc(Oc3ccc(NC(=O)Nc4cc(C)on4)c(Cl)c3)c2cc1OC [TIVOZANIB],> 30 µM (inactive),,> 30 µM (inactive),> 30 µM (inactive),0.592 µM (active),> 30 µM (inactive),> 30 µM (inactive),> 30 µM (inactive)
CCCS(=O)(=O)Nc1ccc(F)c(C(=O)c2c[nH]c3ncc(-c4ccc(Cl)cc4)cc23)c1F [VEMURAFENIB],> 30 µM (inactive),,> 30 µM (inactive),> 30 µM (inactive),> 30 µM (inactive),> 30 µM (inactive),> 30 µM (inactive),> 30 µM (inactive)
C[C@@H](c1ccc2nccn2c1)n1nnc2ncc(-c3cnn(C)c3)nc21 [SAVOLITINIB],> 30 µM (inactive),> 30 µM (inactive),> 30 µM (inactive),> 30 µM (inactive),> 30 µM (inactive),> 30 µM (inactive),,> 30 µM (inactive)
Cc1cn(-c2cc(NC(=O)c3ccc(C)c(Nc4nccc(-c5cccnc5)n4)c3)cc(C(F)(F)F)c2)cn1 [NILOTINIB],> 30 µM (inactive),,,,,,,> 30 µM (inactive)
CNC(=O)c1cc(Oc2ccc(NC(=O)Nc3ccc(Cl)c(C(F)(F)F)c3)c(F)c2)ccn1 [REGORAFENIB],> 30 µM (inactive),,> 30 µM (inactive),> 30 µM (inactive),0.421 µM (active),> 30 µM (inactive),> 30 µM (inactive),> 30 µM (inactive)
CN1N=C(N)c2cn([C@@H]3O[C@H](COP(=O)(O)O)[C@@H](O)[C@H]3O)c3ncnc1c23 [TRICIRIBINE PHOSPHATE],> 30 µM (inactive),> 30 µM (inactive),,> 30 µM (inactive),> 30 µM (inactive),> 30 µM (inactive),> 30 µM (inactive),> 30 µM (inactive)
Cc1cc(Nc2cc(N3CCN(C)CC3)nc(/C=C/c3ccccc3)n2)n[nH]1 [ENMD-2076],> 30 µM (inactive),> 30 µM (inactive),,> 30 µM (inactive),3.42 µM (active),,> 30 µM (inactive),> 30 µM (inactive)
OCCn1cc(-c2cnc3nnn(Cc4ccc5ncccc5c4)c3n2)cn1 [PF-04217903],> 30 µM (inactive),> 30 µM (inactive),> 30 µM (inactive),> 30 µM (inactive),> 30 µM (inactive),,> 30 µM (inactive),> 30 µM (inactive)
CN1CCC(CNc2ccc3ncc(-c4cccc(OC(F)(F)F)c4)n3n2)CC1 [SGI-1776],> 30 µM (inactive),> 30 µM (inactive),,> 30 µM (inactive),> 30 µM (inactive),> 30 µM (inactive),> 30 µM (inactive),> 30 µM (inactive)
CC(C)Nc1cc(-c2c[nH]c(C(=O)N[C@H](CO)c3cccc(Cl)c3)c2)c(Cl)cn1 [ULIXERTINIB],> 30 µM (inactive),> 30 µM (inactive),> 30 µM (inactive),> 30 µM (inactive),> 30 µM (inactive),> 30 µM (inactive),,> 30 µM (inactive)
O=C(Nc1cccc(Cl)c1)Nc1ncc(CCNc2ncnc3ccsc23)s1 [SNS-314],> 30 µM (inactive),,,> 30 µM (inactive),0.423 µM (active),,> 30 µM (inactive),> 30 µM (inactive)
Cc1nc(N)sc1-c1ccnc(Nc2ccc(N3CCOCC3)cc2)n1 [CYC-116],> 30 µM (inactive),> 30 µM (inactive),,> 30 µM (inactive),> 30 µM (inactive),,> 30 µM (inactive),> 30 µM (inactive)
COc1cc2nccc(Oc3ccc(NC(=O)NC4CC4)c(Cl)c3)c2cc1C(N)=O [LENVATINIB],> 30 µM (inactive),,> 30 µM (inactive),> 30 µM (inactive),0.218 µM (active),> 30 µM (inactive),> 30 µM (inactive),> 30 µM (inactive)
COC(=O)N[C@@H](C)CNc1nccc(-c2cn(C(C)C)nc2-c2cc(Cl)cc(NS(C)(=O)=O)c2F)n1 [ENCORAFENIB],> 30 µM (inactive),,> 30 µM (inactive),> 30 µM (inactive),> 30 µM (inactive),> 30 µM (inactive),> 30 µM (inactive),> 30 µM (inactive)
CCS(=O)(=O)N1CC(CC#N)(n2cc(-c3ncnc4[nH]ccc34)cn2)C1 [BARICITINIB],> 30 µM (inactive),> 30 µM (inactive),> 30 µM (inactive),> 30 µM (inactive),> 30 µM (inactive),> 30 µM (inactive),,> 30 µM (inactive)
CCn1c(-c2nonc2N)nc2c(C#CC(C)(C)O)ncc(OC[C@H]3CCCNC3)c21 [GSK-690693],> 30 µM (inactive),,,,,,,> 30 µM (inactive)
N[C@@H]1CCCN(c2c(/C=C3\SC(=O)NC3=O)cccc2-c2ccccc2)C1,> 30 µM (inactive),> 30 µM (inactive),> 30 µM (inactive),> 30 µM (inactive),> 30 µM (inactive),> 30 µM (inactive),,> 30 µM (inactive)
CN1CCN(c2ccc3nc(-c4c(N)c5c(F)cccc5[nH]c4=O)[nH]c3c2)CC1 [DOVITINIB],> 30 µM (inactive),,,,,,,> 30 µM (inactive)
Nc1nc(N)c2nc(-c3cccc(O)c3)c(-c3cccc(O)c3)nc2n1 [TG100-115],> 30 µM (inactive),,,,,,,> 30 µM (inactive)
